One test has as its system whole human blood. As to the kind of experiment: Anti-CD3/anti-CD28-induced IL-2 Secretion in Whole Human Blood. Format: cell-based. As to conditions: 48 h, IL-2 by ELISA, threshold 5 μM. On the procedure: Anti-CD3/anti-CD28-induced IL-2Secretion in Whole Human Blood
The purpose of this assay is to test the potency of T cell receptor (TCR; CD3) and CD28 signaling pathway inhibitors in whole human blood. Anti-CD3 antibody (10 ug/mL; R&D Systems) is precoated on the wells of 96-well plates. Compounds are added in T-cell dilution media (Iscoves modified DMEM), supplemented with 0.1% human serum albumin, 5 uM Beta-mercaptoethanol, and 1×Pen/Strep/Glu. Compounds are tested in triplicate. 100 μL of whole human blood (collected in heparinized tubes) is added to each well and the plates are incubated for 30 minutes at 37° C., 5% CO2. Anti-CD28 antibody (2 ug/mL; R&D Systems) is diluted in T-cell dilution media and is added to the wells. The mixture is incubated for 48 h at 37° C., 5% CO2. The cells are then pelleted, and the supernatant collected and IL-2 production determined by ELISA (R&D Systems).
For orientation: ELISA stands for enzyme-linked immunosorbent assay.

The test system of another test is human T cells. As to the kind of experiment: Anti-CD3/anti-CD28-induced T cell IL-2 Secretion and Proliferation Assay. Format: cell-based. As to conditions: list printed after the T cell IL-2 secretion/proliferation method, threshold 500 μM.

pIC50: −log10 of the molar value. Where only a bound is given, the exact number is not on record here.

As to `C[C@H](Nc1cc(-n2nc(N3C[C@@H]4C[C@H]3CN4)c3ccccc32)ccn1)c1ccccc1F` [Example 24, (S)-{4-[3-((1S,4S)-2,5-Diaza-bicyclo[2.2.1]hept-2-yl)-indazol-1-yl]-pyridin-2-yl}-[1-(2-fluoro-phenyl)-ethyl]-amine], the negative-log IC50 (pIC50) – broadly, the IC50 on a negative log10 scale, so that one unit is a factor of ten – with whole human blood is greater than 5.30.
Regarding `C[C@H](Nc1cc(-c2cc(N3C[C@@H]4C[C@H]3CN4)c3ccccc3n2)ccn1)c1ccccc1` [Example 51, (S)-{4-[4-((1S,4S)-2,5-Diaza-bicyclo[2.2.1]hept-2-yl)-quinolin-2-yl]-pyridin-2-yl}-(1-phenyl-ethyl)-amine], in the test on human T cells, the negative logarithm of the IC50 (pIC50) was greater than 3.30.
Consider `C[C@H](Nc1cc(-c2cc3nccn3c(N3C[C@@H]4C[C@H]3CN4)n2)ccn1)c1ccccc1` [Example 3, (S)-{4-[5-((1S,4S)-2,5-Diaza-bicyclo[2.2.1]hept-2-yl)-imidazo[1,2-c]pyrimidin-7-yl]-pyridin-2-yl}-(1-phenyl-ethyl)-amine], for which the pIC50 with whole human blood is greater than 5.30.
As to `CC(C)N1C[C@@H]2C[C@H]1CN2c1nn(-c2ccnc(N[C@@H](C)c3ccccc3)c2)c2ccccc12` [Example 44, (S)-{4-[3-(5-Isopropyl-(1S,4S)-2,5-diaza-bicyclo[2.2.1]hept-2-yl)-indazol-1-yl]-pyridin-2-yl}-(1-phenyl-ethyl)-amine], the values for the negative-log IC50 (pIC50) with human T cells and in the test on whole human blood were greater than 3.30 and greater than 5.30, respectively.
The like results for `C[C@H](Nc1cc(-c2nc(N3C[C@@H]4C[C@H]3CN4)c3ccccc3n2)ccn1)c1ccccc1` [Example 49, {4-[4-((1S,4S)-2,5-Diaza-bicyclo[2.2.1]hept-2-yl)-quinazolin-2-yl]-pyridin-2-yl}-(S)-(1-phenyl-ethyl)-amine] were, in that order, greater than 3.30 and greater than 5.30.
As to `C[C@H](Nc1cc(-c2nc(N3CC4CC3CN4C)c3ccccc3n2)ccn1)c1ccccc1` (stereo partly drawn) [(S)-{4-[4-(5-Methyl-(1S,4S)-2,5-diaza-bicyclo[2.2.1]hept-2-yl)-quinazolin-2-yl]-pyridin-2-yl}-(1-phenyl-ethyl)-amine], in the test with human T cells, the pIC50 is greater than 3.30.
For the molecule `CC(C)N1C[C@@H]2C[C@H]1CN2c1nc(-c2ccnc(N[C@@H](C)c3ccccc3)c2)cc2nccn12` [Example 4, (S)-{4-[5-(5-Isopropyl-(1S,4S)-2,5-diaza-bicyclo[2.2.1]hept-2-yl)-imidazo[1,2-c]pyrimidin-7-yl]-pyridin-2-yl}-(1-phenyl-ethyl)-amine], the results for the pIC50 in the test on human T cells and with whole human blood were greater than 3.30 and greater than 5.30, respectively.
As for `Fc1ccccc1CNc1cc(-c2cc3nccn3c(N3C[C@@H]4C[C@H]3CN4)n2)ccn1` [Example 57, {4-[5-((1S,4S)-2,5-Diaza-bicyclo[2.2.1]hept-2-yl)-imidazo[1,2-c]pyrimidin-7-yl]-pyridin-2-yl}-(2-fluoro-benzyl)-amine], the pIC50 in the test on human T cells is greater than 3.30; in the test on whole human blood, greater than 5.30.
Molecule `CC(C)N1C[C@@H]2C[C@H]1CN2c1nccc(-c2ccnc(N[C@@H](C)c3ccccc3)c2)n1` [Example 66, (S)-{4-[2-(5-Isopropyl-(1S,4S)-2,5-diaza-bicyclo[2.2.1]hept-2-yl)-pyrimidin-4-yl]-pyridin-2-yl}-(1-phenyl-ethyl)-amine] showed a pIC50 in the test on whole human blood greater than 5.30.
`CC(C)N1CC2CC1CN2c1nc(-c2ccnc(N[C@@H](C)c3ccccc3)c2)nc2ccccc12` (stereo partly drawn) [(S)-{4-[4-(5-Isopropyl-(1S,4S)-2,5-diaza-bicyclo[2.2.1]hept-2-yl)-quinazolin-2-yl]-pyridin-2-yl}-(1-phenyl-ethyl)-amine]: the negative logarithm of the IC50 (pIC50) with human T cells was greater than 3.30.
As to `CCN1C[C@@H]2C[C@H]1CN2c1nc(-c2ccnc(N[C@@H](C)c3ccccc3)c2)cc2nccn12` [Example 5, (S)-{4-[5-(5-Ethyl-(1S,4S)-2,5-diaza-bicyclo[2.2.1]hept-2-yl)-imidazo[1,2-c]pyrimidin-7-yl]-pyridin-2-yl}-(1-phenyl-ethyl)-amine], the negative logarithm of the IC50 (pIC50) in the test with whole human blood is greater than 5.30.
Take `CCN1C[C@@H]2C[C@H]1CN2c1nc(-c2ccnc(N[C@@H](C)c3ccccc3)c2)nc2ccccc12` [Example 64, (S)-{4-[4-(5-Ethyl-(1S,4S)-2,5-diaza-bicyclo[2.2.1]hept-2-yl)-quinazolin-2-yl]-pyridin-2-yl}-(1-phenyl-ethyl)-amine]: the negative-log IC50 (pIC50) in the test on human T cells is greater than 3.30.
Turning to `c1ccc(CNc2cc(-n3nc(N4C[C@@H]5C[C@H]4CN5)c4ccccc43)ccn2)cc1` [Example 69], the pIC50 with human T cells was greater than 3.30; in the test with whole human blood, greater than 5.30.
Turning to `Fc1ccc2c(N3CC4CC3CN4)nn(-c3ccnc(NCc4ccccc4)c3)c2c1` [Benzyl-{4-[3-((1S,4S)-2,5-diaza-bicyclo[2.2.1]hept-2-yl)-6-fluoro-indazol-1-yl]-pyridin-2-yl}-amine], the pIC50 was greater than 3.30 in the test with human T cells and greater than 5.30 in the test on whole human blood.
In turn, `CC(C)N1C[C@@H]2C[C@H]1CN2c1nc(-c2ccnc(N[C@@H](C)c3ccccc3)c2)nc2ccccc12` [Example 65, (S)-{4-[4-(5-Isopropyl-(1S,4S)-2,5-diaza-bicyclo[2.2.1]hept-2-yl)-quinazolin-2-yl]-pyridin-2-yl}-(1-phenyl-ethyl)-amine] showed a negative-log IC50 (pIC50) in the test with whole human blood greater than 5.30.
The molecule `C[C@H](Nc1cc(-n2nc(N3C[C@@H]4C[C@H]3CN4)c3ccccc32)ccn1)c1ccccc1` [Example 43, (S)-{4-[3-((1s, 4S)-2,5-Diaza-bicyclo[2.2.1]hept-2-yl)-indazol-1-yl]-pyridin-2-yl}-(1-phenyl-ethyl)-amine] showed a pIC50 in the test on human T cells greater than 3.30.
Regarding `CCN1CC2CC1CN2c1nc(-c2ccnc(N[C@@H](C)c3ccccc3)c2)nc2ccccc12` (stereo partly drawn) [(S)-{4-[4-(5-Ethyl-(1S,4S)-2,5-diaza-bicyclo[2.2.1]hept-2-yl)-quinazolin-2-yl]-pyridin-2-yl}-(1-phenyl-ethyl)-amine], the negative logarithm of the IC50 (pIC50) with whole human blood is greater than 5.30.
With `CC(C)N1C[C@@H]2C[C@H]1CN2c1cc(-c2ccnc(N[C@@H](C)c3ccccc3)c2)nc2ccccc12` [Example 52, (S)-{4-[4-(5-Isopropyl-(1S,4S)-2,5-diaza-bicyclo[2.2.1]hept-2-yl)-quinolin-2-yl]-pyridin-2-yl}-(1-phenyl-ethyl)-amine], the pIC50 is greater than 3.30 in the test on human T cells and greater than 5.30 with whole human blood.

Source of the values: patent US7582631B2, “Substituted heterocyclic compounds and methods of use” (Amgen Inc., priority 2004, dated 2009).
